Values after ≈ are worked out from the molar mass of the structure shown. Residues, ends and D or L forms follow the SMILES beside them. No end group written: not given here.
Key:
Format in all cases: cell-based
Settings in all cases: broth microdilution in MHB, peptide 128 down to 0.5 µg/mL, 20–24 h at 37 °C, no visible growth; range of three independent experiments
[1] = system: Salmonella enterica serovar Enteritidis (human clinical isolate)
Experimental: (§1) Bacteria were grown overnight at 37 °C in Mueller-Hinton Broth (MHB; Sigma-Aldrich, St. Louis. MO, USA) in a shaking incubator and aliquoted into cryovials with a 50% glycerol solution in a 1:1 ratio. No additives were added to the MHB during the growth of bacterial isolates. Glycerol stocks were stored at −80 °C.
(§2) The antimicrobial activity of the putative AMPs was determined by a broth microdilution assay as described by the Clinical and Laboratory Standards Institute, with the published adaptations for testing of cationic peptides. Escherichia coli 25922 and Staphylococcus aureus 29213 isolates were purchased from the American Type Culture Collection (ATCC; Manassas, VA, USA). A human clinical isolate of Salmonella enterica serovar Enteritidis was provided by the BC Centre for Disease Control. Bacteria from stocks stored at −80 °C were streaked onto nonselective Columbia blood agar with 5% sheep blood (Oxoid) and incubated overnight at 37 °C. Next, 2–4 colonies were streaked onto a new agar plate to ensure uniform health of colonies used in the broth microdilution assay. Isolated colonies were suspended in MHB and the optical density was measured with a spectrophotometer to create an initial inoculum concentration of approximately 1 × 10^8 cfu/mL. The inoculum was diluted 1:250 to a final concentration of 2–8 × 10^5 cfu/mL, which was confirmed by performing a Total Viability Count (TVC). The TVC consisted of plating a 1:1000 dilution of the final inoculum on nonselective media and was also used to confirm the health and purity of the inoculum in each trial.
(§3) Lyophilized 80 µg peptide aliquots synthesized by GenScript (Piscataway, NJ, USA) were resuspended to 1.28 mg/mL with UltraPure water (Thermo Fisher Scientific, Waltham, MA, USA) and serially diluted in polypropylene 96-well microtiter plates (Greiner Bio-One #650261, Kremsmünster, Austria) from 128 down to 0.5 µg/mL. Two columns per plate were reserved for growth and sterility controls. Inoculum was added to the wells containing the peptide and the growth control. Plates were incubated for 20–24 h at 37 °C. The minimum inhibitory concentration (MIC) was determined as the lowest peptide concentration where there was no visible bacterial growth.

[2] = system: Escherichia coli ATCC 25922
Experimental: as §1, §2, §3

[3] = system: Staphylococcus aureus ATCC 29213
Experimental: as §1, §2, §3

Molecule	MIC, Salmonella Enteritidis [1] [µg/mL]	MIC, E. coli ATCC 25922 [2] [µg/mL]	MIC, S. aureus ATCC 29213 [3] [µg/mL]
CC[C@H](C)[C@H](NC(=O)CN)C(=O)N[C@@H](CC(C)C)C(=O)N[C@@H](CC(C)C)C(=O)N[C@@H](CC(N)=O)C(=O)N[C@H](C(=O)N[C@@H](CC(C)C)C(=O)N[C@@H](CCCCN)C(=O)NCC(=O)N[C@@H](C)C(=O)N[C@@H](C)C(=O)N[C@@H](CCCCN)C(=O)N[C@@H](CC(N)=O)C(=O)N[C@H](C(=O)N[C@@H](C)C(=O)NCC(=O)N[C@H](C(=O)N[C@@H](CC(C)C)C(=O)N[C@@H](CC(C)C)C(=O)N[C@@H](CC(=O)O)C(=O)N[C@@H](CCCCN)C(=O)N[C@@H](CC(C)C)C(=O)N[C@@H](CCCCN)C(=O)N[C@@H](CS)C(=O)N[C@@H](CCCCN)C(=O)N[C@H](C(=O)N[C@H](C(=O)NCC(=O)NCC(=O)N[C@@H](CS)C(=O)O)[C@@H](C)O)[C@@H](C)CC)C(C)C)C(C)C)[C@@H](C)O [PeNi8] (H-GILLNTLKGAAKNVAGVLLDKLKCKITGGC-OH; N-terminus and C-terminus assumed)	64 (≈ 21.2 µM)	8 (≈ 2.66 µM)	4 to 8
GLVGKLVKGGLKLIGHVANG [RaSi1]	> 128	8 to 16	64 to 128
CC[C@H](C)[C@H](NC(=O)CNC(=O)[C@H](CCCNC(=N)N)NC(=O)[C@H](CCCCN)NC(=O)[C@H](CCCCN)NC(=O)[C@H](CCCNC(=N)N)NC(=O)[C@@H]1CCCN1C(=O)[C@@H](NC(=O)[C@H](CCSC)NC(=O)[C@H](CC(C)C)NC(=O)[C@@H](N)CCCCN)[C@@H](C)CC)C(=O)N[C@@H](Cc1ccccc1)C(=O)NCC(=O)NCC(=O)N[C@@H](CC(C)C)C(=O)N[C@@H](CC(C)C)C(=O)N[C@@H](CCCCN)C(=O)N[C@H](C(=O)NCC(=O)N[C@@H](CCCCN)C(=O)N[C@@H](CCCCN)C(=O)N[C@H](C(=O)N[C@@H](C)C(=O)N[C@@H](CS)C(=O)NCC(=O)N[C@@H](CC(C)C)C(=O)N[C@@H](CO)C(=O)NCC(=O)N[C@@H](CC(C)C)C(=O)N[C@@H](CS)C(=O)O)[C@@H](C)CC)C(C)C [OdTo4] (H-KLMIPRKKRGIFGGLLKVGKKIACGLSGLC-OH; N-terminus and C-terminus assumed)	16 (≈ 5.02 µM)	8 to 16	16 (≈ 5.02 µM)
GSSSRSCRCIRLSRLSSKRT [NaVi4]	> 128	> 128	> 128
GAHKEVFKRDTALTKEAAKKAKK [ApMe2]	> 128	> 128	> 128
RKIIAVSVHKLCRVKR [BoUs1]	64	64 to 128	> 128
CC[C@H](C)[C@H](NC(=O)[C@H](CCCCN)NC(=O)[C@H](CS)NC(=O)[C@H](Cc1ccccc1)NC(=O)[C@H](CCCCN)NC(=O)[C@H](CCCNC(=N)N)NC(=O)[C@H](CO)NC(=O)[C@H](Cc1ccc(O)cc1)NC(=O)CNC(=O)[C@H](CS)NC(=O)[C@@H]1CCCN1C(=O)[C@H](C)NC(=O)[C@@H](NC(=O)[C@H](C)NC(=O)[C@H](Cc1ccccc1)NC(=O)[C@H](Cc1ccccc1)NC(=O)[C@H](Cc1ccccc1)NC(=O)[C@H](CCCNC(=N)N)NC(=O)[C@@H](N)CCCNC(=N)N)[C@@H](C)O)C(=O)N[C@H](C(=O)N[C@@H](CCCNC(=N)N)C(=O)N[C@@H](CCCNC(=N)N)C(=O)N[C@@H](CCCCN)C(=O)N[C@@H](CCCNC(=N)N)C(=O)O)[C@@H](C)O [CaCa4] (H-RRFFFATAPCGYSRKFCKITRRKR-OH)	32 to 64	16 to 32	> 128
CC(C)C[C@H](NC(=O)CNC(=O)[C@H](CO)NC(=O)[C@H](CC(C)C)NC(=O)CNC(=O)[C@H](CS)NC(=O)[C@H](CC(C)C)NC(=O)[C@@H](NC(=O)[C@H](CCCCN)NC(=O)[C@H](CCCCN)NC(=O)CNC(=O)[C@@H](NC(=O)CNC(=O)[C@H](CC(C)C)NC(=O)[C@@H](NC(=O)CNC(=O)[C@H](CO)NC(=O)[C@H](CC(C)C)NC(=O)[C@H](CC(C)C)NC(=O)CN)C(C)C)C(C)C)C(C)C)C(=O)N[C@@H](CS)C(=O)O [OdMa7] (H-GLLSGVLGVGKKVLCGLSGLC-OH; N-terminus and C-terminus assumed)	128 (≈ 64.9 µM)	8 to 16	16 to 32
KYHHIKLRHGRHRRTIH [PaVa2]	> 128	> 128	> 128
RPRWSHRSRR [PeNi18]	> 128	> 128	> 128
ISIKEALEHSFFHTVPRKWCKKH [PoSn1]	> 128	64	> 128
AVLSFVHKLFLNFLHVDTSKGKCRATLQ [TeRu3]	> 128	> 128	> 128
GFMDTAKNVAKNVAVTLLDNLKCKITKAC [OdMa13, rAMPage-discovered AMP, Odorrana margaretae]	> 128	64 to 128	> 128
GIFSLIKGAAKVVAKGLGK [RaOm3]	32 to 64	8 to 16	64
ITEPVGTKAPTFTSELRGGWLKKR [PaVa3]	> 128	> 128	> 128
CC[C@H](C)[C@H](NC(=O)[C@H](CO)NC(=O)[C@@H]1CCCN1C(=O)[C@H](CC(C)C)NC(=O)[C@@H](NC(=O)[C@H](CCCCN)NC(=O)[C@H](C)NC(=O)[C@H](C)NC(=O)[C@H](CC(C)C)NC(=O)CNC(=O)[C@H](C)NC(=O)[C@@H](NC(=O)[C@@H](NC(=O)[C@@H]1CCCN1C(=O)[C@H](CC(C)C)NC(=O)[C@@H](N)Cc1ccccc1)C(C)C)C(C)C)C(C)C)C(=O)N[C@H](C(=O)N[C@@H](CS)C(=O)N[C@@H](C)C(=O)N[C@H](C(=O)N[C@H](C(=O)N[C@@H](CCCCN)C(=O)N[C@@H](CCCCN)C(=O)N[C@@H](CS)C(=O)O)[C@@H](C)O)C(C)C)[C@@H](C)CC [RaCa15] (H-FLPVVAGLAAKVLPSIICAVTKKC-OH; N-terminus and C-terminus assumed)	> 128	8 to 16	4 to 8
